Laboratory results published in patent US4792559A, “1,2,3,4-tetrahydroquinoline substituted 5-aminopentanenitrile compounds and their use as calcium modulators” (ADIR et Compagnie, priority 1985, dated 1988).
Entries after “also recorded” stand apart in the source; their conditions may differ. Where two headings read alike, the source gives them in different places.

Key:
[1] = tested on: aorta; assay: Isolated rat aorta rings stimulated with potassium-rich solution (K+ 100 mM), relaxation; set-up: species or system rat (male Wistar); conditions: aorta rings stimulated with K+ 100 mM, read-out: AORTA St:K+ IC50
Method: (§1) a. Study of isolated organs removed from rats
(§2) Male Wistar rats weighing from 350 to 400 g are used.
(§3) After rapid sacrifice of the animal, the following are removed:
(§4) the aorta, dissected and prepared in rings; after an equilibration period of 1 hour in the reference physiological solution (1), the prepared specimens are stimulated with a solution rich in potassium (K^+) (100 mM) or with noradrenaline (NA) (10^-6 M).
(§5) The substances to be tested are then added (test sample 0.2 ml) in cumulative doses every 15 minutes.
(§6) The relaxation values obtained permit an activity-dose curve to be constructed, enabling the IC50 to be calculated in M.
(§7) The characteristics of the solutions used are as follows: […]

[2] = tested on: aorta; assay: Isolated rat aorta rings stimulated with noradrenaline (10^-6 M), relaxation; set-up: species or system rat (male Wistar); conditions: read-out: AORTA St:NA IC50
Method: as §1, §2, §3, §4, §5, §6, §7

[3] = tested on: right auricle (RA); assay: Isolated right auricle, chronotropic effect; set-up: species or system rat (male Wistar); conditions: Rattus norvegicus
Method: as §1, §2
(§8) the right auricle (RA) and left auricle (LA) RA beats spontaneously.
(§9) Stabilisation is obtained in physiological liquid (2) after 30 minutes.
(§10) The substances to be tested are then added (test sample 0.2 ml) in cumulative doses every 15 minutes. The effects on RA are chronotropic. The effects on LA are inotropic. The construction of the activity-dose curves enables the IC50, expressed in M, to be measured.

[4] = tested on: left auricle (LA); assay: Isolated left auricle, inotropic effect; set-up: species or system rat (male Wistar); conditions: Rattus norvegicus; stimulated electrically at 3 Hz
Method: as §1, §2, §8
LA is stimulated electrically at a rate of 3 Hz (180 beats per min.) (amplitude of the stimulations: threshold×2).
as §9, §10

[5] = tested on: left auricle / aorta; assay: Evaluation of myocardium/vessel selectivity (IC50 LA/IC50 aorta); set-up: species or system rat (male Wistar); conditions: for LA/AORTA SELECTIVITY (St:K+): IC50 LA/IC50 aorta, high values indicate vascular selectivity
Description: c. Evaluation of myocardium/vessel selectivity
The IC50 LA/IC50 aorta ratio leads to a first evaluation; the high values indicate vascular selectivity.

[6] = target: calmodulin (Homo sapiens, UniProt P0DP23); assay: Calcium calmodulin binding, fluorescence of dansylated calmodulin; conditions: for Kd/IC50 AORTA K+: close to 1 indicates vascular inhibition through calmodulin; for Kd: extrapolated to 0 calmodulin, read-out: Kd (cam); for mechanism indicated by the pharmacological effects: in vitro
Method: b. Fixation on calcium calmodulin binding
The orientations of synthesis which may lead to possibilities of inhibiting calmodulin are evaluated by measuring the fluorescence of dansylated calmodulin.
The substances to be tested are added to the experimental vessel (2 ml). The increase in fluorescence of dansylated calmodulin enables effect-dose curves to be constructed; measuring the EC50 gives an apparent Kd value. After extrapolation of the apparent Kd values to 0 calmodulin, the experiments carried out for different calcium-calmodulin concentration values enable the characteristic Kd values of the tested substances to be determined (Method proposed by Johnson and Wittenauer, 1983, Biochem., 211, 473-479).
d. Evaluation of the possibility of inhibition at the calmodulin level

[7] = tested on: aorta artery of the rat without endothelium; assay: Contraction of rat aorta without endothelium by ionophore calcium A 23187; conditions: A 23187 at 5.10^-6 M
[8] = target: T1, Ca++ channels of membranes of transverse tubules in skeletal muscle (Homo sapiens, UniProt Q13698); assay: Binding on Ca++ channels of membranes of transverse tubules in skeletal muscle
T1 construct: membranes of transverse tubules in skeletal muscle; from tissue; host or cells: skeletal muscle, transverse tubule membranes
T1 sequence (Q13698 whole entry): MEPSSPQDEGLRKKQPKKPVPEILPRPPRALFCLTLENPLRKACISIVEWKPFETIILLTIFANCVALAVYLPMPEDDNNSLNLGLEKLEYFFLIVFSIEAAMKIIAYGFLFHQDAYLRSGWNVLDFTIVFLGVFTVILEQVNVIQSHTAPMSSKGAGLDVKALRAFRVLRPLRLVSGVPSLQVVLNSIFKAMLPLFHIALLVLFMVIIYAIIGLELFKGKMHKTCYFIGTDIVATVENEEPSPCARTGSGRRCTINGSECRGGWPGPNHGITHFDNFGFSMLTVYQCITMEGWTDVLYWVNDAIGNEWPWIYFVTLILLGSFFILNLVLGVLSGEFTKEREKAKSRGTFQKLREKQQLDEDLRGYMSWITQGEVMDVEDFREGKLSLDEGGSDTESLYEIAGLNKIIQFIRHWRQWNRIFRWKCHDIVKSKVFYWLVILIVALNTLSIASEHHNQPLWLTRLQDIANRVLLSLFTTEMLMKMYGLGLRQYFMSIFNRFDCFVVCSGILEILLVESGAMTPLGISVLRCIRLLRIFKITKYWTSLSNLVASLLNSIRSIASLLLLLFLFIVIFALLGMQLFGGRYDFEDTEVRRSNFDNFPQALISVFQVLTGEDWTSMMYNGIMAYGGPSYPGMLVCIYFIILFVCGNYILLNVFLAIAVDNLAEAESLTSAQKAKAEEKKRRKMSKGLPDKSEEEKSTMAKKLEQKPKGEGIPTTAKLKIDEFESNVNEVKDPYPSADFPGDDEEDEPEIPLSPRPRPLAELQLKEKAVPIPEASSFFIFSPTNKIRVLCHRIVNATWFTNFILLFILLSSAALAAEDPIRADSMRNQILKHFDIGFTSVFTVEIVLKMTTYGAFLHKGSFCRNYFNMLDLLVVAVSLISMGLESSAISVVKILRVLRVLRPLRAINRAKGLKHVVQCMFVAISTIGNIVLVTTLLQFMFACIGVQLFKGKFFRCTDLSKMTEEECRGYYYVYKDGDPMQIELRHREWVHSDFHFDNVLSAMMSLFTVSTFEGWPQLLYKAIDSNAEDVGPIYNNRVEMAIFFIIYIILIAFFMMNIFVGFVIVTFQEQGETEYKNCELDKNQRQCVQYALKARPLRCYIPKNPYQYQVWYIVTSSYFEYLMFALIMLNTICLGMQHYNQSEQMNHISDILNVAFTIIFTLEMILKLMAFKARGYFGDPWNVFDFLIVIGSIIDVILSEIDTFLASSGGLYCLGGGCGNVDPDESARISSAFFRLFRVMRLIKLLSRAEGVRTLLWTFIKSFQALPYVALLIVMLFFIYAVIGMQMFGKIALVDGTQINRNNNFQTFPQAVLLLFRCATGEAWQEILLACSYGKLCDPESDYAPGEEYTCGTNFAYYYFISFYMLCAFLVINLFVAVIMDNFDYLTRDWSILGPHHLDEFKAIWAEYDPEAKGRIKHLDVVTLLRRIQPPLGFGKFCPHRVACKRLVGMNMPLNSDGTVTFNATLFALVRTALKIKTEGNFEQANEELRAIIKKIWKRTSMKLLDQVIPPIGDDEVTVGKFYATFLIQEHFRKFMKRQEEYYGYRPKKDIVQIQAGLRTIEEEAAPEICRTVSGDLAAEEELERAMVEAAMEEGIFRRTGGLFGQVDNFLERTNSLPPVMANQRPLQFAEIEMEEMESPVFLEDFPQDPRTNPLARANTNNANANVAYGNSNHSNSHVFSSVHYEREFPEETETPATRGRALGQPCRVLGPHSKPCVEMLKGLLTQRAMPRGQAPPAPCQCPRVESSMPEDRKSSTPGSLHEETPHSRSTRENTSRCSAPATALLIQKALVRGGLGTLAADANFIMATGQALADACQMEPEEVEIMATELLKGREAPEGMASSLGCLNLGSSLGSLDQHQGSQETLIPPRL
T1 sequence (P54289 25-944 partner limits assumed): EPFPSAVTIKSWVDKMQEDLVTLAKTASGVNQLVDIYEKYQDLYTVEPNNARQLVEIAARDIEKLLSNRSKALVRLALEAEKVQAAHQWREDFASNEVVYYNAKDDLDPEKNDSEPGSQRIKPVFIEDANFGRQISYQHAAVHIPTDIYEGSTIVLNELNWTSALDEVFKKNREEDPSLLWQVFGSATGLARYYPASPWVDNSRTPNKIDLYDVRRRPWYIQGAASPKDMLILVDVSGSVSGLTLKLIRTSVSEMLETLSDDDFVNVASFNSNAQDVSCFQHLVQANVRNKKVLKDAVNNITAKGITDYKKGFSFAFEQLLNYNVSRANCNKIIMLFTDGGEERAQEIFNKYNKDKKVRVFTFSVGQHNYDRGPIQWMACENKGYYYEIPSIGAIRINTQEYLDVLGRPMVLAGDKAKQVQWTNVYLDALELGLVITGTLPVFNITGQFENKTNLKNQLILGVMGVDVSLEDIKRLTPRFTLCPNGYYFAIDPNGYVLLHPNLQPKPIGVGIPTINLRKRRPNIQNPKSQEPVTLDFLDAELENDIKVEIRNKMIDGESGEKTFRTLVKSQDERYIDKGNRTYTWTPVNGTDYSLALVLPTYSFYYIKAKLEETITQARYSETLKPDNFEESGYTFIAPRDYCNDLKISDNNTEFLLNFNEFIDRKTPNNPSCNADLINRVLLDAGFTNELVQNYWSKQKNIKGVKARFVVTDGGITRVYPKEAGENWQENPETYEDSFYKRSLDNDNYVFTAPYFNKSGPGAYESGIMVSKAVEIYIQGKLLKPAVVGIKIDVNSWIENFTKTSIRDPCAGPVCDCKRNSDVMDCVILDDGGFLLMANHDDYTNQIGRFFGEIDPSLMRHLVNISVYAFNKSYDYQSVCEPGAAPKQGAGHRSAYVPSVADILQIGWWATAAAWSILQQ
T1 sequence (P54289 945-1103 partner limits assumed): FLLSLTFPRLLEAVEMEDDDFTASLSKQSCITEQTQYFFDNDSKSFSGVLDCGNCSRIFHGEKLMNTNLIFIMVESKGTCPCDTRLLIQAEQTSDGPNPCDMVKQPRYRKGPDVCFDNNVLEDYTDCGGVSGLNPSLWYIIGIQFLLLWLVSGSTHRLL
T1 sequence (Q02641 whole entry partner): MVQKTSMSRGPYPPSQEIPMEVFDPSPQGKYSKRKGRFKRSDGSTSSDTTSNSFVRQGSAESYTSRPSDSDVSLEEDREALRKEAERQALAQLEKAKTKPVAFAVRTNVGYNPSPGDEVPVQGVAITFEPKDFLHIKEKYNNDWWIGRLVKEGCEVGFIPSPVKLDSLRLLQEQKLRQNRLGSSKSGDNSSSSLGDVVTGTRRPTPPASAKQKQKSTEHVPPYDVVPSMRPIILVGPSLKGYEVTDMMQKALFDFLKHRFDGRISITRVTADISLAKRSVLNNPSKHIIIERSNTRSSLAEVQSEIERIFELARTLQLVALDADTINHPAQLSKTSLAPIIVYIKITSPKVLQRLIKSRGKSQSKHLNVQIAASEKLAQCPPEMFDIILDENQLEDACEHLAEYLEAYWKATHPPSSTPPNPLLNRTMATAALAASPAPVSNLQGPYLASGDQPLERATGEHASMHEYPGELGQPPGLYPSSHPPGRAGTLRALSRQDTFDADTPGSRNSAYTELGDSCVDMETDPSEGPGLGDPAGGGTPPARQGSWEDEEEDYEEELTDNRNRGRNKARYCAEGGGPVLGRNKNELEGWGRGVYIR
T1 sequence (Q06432 whole entry partner): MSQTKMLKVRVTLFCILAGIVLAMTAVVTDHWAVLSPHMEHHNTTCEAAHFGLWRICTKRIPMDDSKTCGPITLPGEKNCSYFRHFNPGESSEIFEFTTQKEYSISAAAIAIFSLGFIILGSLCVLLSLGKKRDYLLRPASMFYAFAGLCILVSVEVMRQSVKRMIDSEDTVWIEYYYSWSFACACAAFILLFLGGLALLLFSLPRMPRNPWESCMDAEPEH
Description: (§11) C. Binding on Ca^++ channels of membranes of transverse tubules in skeletal muscle.

[9] = target: T2, Ca++ channels of membranes of transverse tubules in skeletal muscle; assay: as above; conditions: transverse tubules in skeletal muscle; read-out: Kd for the Ca++ channel
T2 construct: membranes of transverse tubules in skeletal muscle; from tissue; host or cells: skeletal muscle, transverse tubule membranes
T2 sequence (Q13698 whole entry): as the sequence (Q13698 whole entry) above
T2 sequence (P54289 25-944 partner limits assumed): as the sequence (P54289 25-944 partner limits assumed) above
T2 sequence (P54289 945-1103 partner limits assumed): as the sequence (P54289 945-1103 partner limits assumed) above
T2 sequence (Q02641 whole entry partner): as the sequence (Q02641 whole entry partner) above
T2 sequence (Q06432 whole entry partner): as the sequence (Q06432 whole entry partner) above
Description: as §11

[10] = tested on: dogs; assay: Haemodynamic study in anaesthetised dogs; format: in vivo, mongrel dogs; conditions: for dP/dt: Left ventricular pressure derivative, variation: measured at 20 minutes; for negative inotropic effect / cardiotropic effect / percentage increase in the PR duration: i.v., compared with Verapamil
Method: A haemodynamic study was carried out on mongrel dogs weighing from 25 to 30 kg, which were anaesthetised with sodium pentobarbital in a dose of 30 mg/kg i.v., intubated and ventilated, and subjected to a thoracotomy at the 5th left intercostal space.
The left and aortal ventricular pressures are measured by means of MILLAR probes introduced by the femoral artery route. The cardiac frequency is measured by Biotach Gould ECG (derivation D2); the gases of the aortal blood and of the coronary sinus are analysed by an ABL3 radiometer.
The products tested were injected by the femoral vein route.

[11] = spontaneously beating, read-out: RIGHT AURICLE (RA) (CHRONOTROPIC EFFECT) IC50

Structure (SMILES) | IC50 ([1]; Rattus norvegicus) | IC50 [2] | IC50 [3, 11] | IC50 [4] | LA/AORTA SELECTIVITY (St:K+) [5] | Kd/IC50 AORTA K+ [6] | Kd [6] | AAP: Average arterial pressure, maximum variation ([10]; IV 100 μg/kg) | ACF: Average coronary flow, maximum variation ([10]; IV 100 μg/kg) | CF: Cardiac frequency, maximum variation ([10]; IV 100 μg/kg) | PO2 SC: PO2 coronary blood sinus, maximum variation ([10]; IV 100 μg/kg) | PR: PR space of the ECG, maximum variation ([10]; IV 100 μg/kg) | dP/dt: Left ventricular pressure derivative, variation ([10]; IV 100 μg/kg) | AAP: Average arterial pressure, maximum variation ([10]; IV 300 μg/kg) | ACF: Average coronary flow, maximum variation ([10]; IV 300 μg/kg) | CF: Cardiac frequency, maximum variation ([10]; IV 300 μg/kg) | I/C: Myocardial O2 intake/consumption ratio, maximum variation ([10]; IV 300 μg/kg) | PO2 SC: PO2 coronary blood sinus, maximum variation ([10]; IV 300 μg/kg) | PR: PR space of the ECG, maximum variation ([10]; IV 300 μg/kg) | dP/dt: Left ventricular pressure derivative, variation ([10]; IV 300 μg/kg) | also measured
COc1cccc(C(C#N)(CCCN(C)CCc2ccc(OC)c3c2CCCN3C(C)=O)Sc2ccccc2)c1 (centres unmarked) [Example 1, 2-(3-methoxyphenyl)-2-phenylthio-5-{N-[(1-acetyl-8-methoxy-1,2,3,4-tetrahydroquinol-5-yl)ethyl]-N-methylamino}-pentanenitrile] | 0.75 µM | 5.5 µM | 10 µM | 82 µM | 100 | 1.08 | 0.81 µM | -9% | +109% | -10% | +36% | +7% | 0% | -24% | +117% | -14% | +118% | +63% | +19% | -3% | IC50 [1]: 0.6 µM; vascular selectivity ([5]; compared with verapamil): this selectivity is greatest; also recorded: a greater selectivity in favour of vessels; affinity for calmodulin [6]: an affinity for calmodulin coherent with the biological effect; mechanism indicated by the pharmacological effects [6]: intracellular inhibitory mechanisms and, especially, a calcium-calmodulin inhibition mechanism; IC50 ([7]; Rattus norvegicus): ~1 µM; affinity for calcium channels relative to verapamil [8]: ~20 times the one of verapamil; Kd [9]: 0.001 µM; AAP: Average arterial pressure, maximum variation ([10]; IV 30 μg/kg): 0%; ACF: Average coronary flow, maximum variation ([10]; IV 30 μg/kg): +54%; CF: Cardiac frequency, maximum variation ([10]; IV 30 μg/kg): -5%; I/C: Myocardial O2 intake/consumption ratio, maximum variation ([10]; IV 30 μg/kg): +19%; PO2 SC: PO2 coronary blood sinus, maximum variation ([10]; IV 30 μg/kg): +14%; PR: PR space of the ECG, maximum variation ([10]; IV 30 μg/kg): 0%; I/C: Myocardial O2 intake/consumption ratio, maximum variation ([10]; IV 100 μg/kg): +55%; negative inotropic effect / cardiotropic effect [10]: absence of a negative inotropic effect; percentage increase in the PR duration [10]: reduction in the percentage increase in the PR duration
COc1ccc(C(C#N)(CCCN(C)CCc2ccc(OC)c3c2CCCN3C(C)=O)C(C)C)cc1OC (centres unmarked) [Example 4, 2-(3,4-dimethoxyphenyl)-2-isopropyl-5-{N-[(1-acetyl-8-methoxy-1,2,3,4-tetrahydroquinol-5-yl)ethyl]-N-methyl-amino}-pentanenitrile] | 0.6 µM | 13 µM | 1.5 µM | 8 µM | 13 | 10.8 | 6.5 µM | – | – | – | – | – | – | -14% | +84% | -17% | +83% | +47% | +27% | -2% | –
COc1ccc(C(C#N)(CCCN(C)CCc2ccc(OC)c3c2CCCN3C(C)=O)Sc2ccccc2)cc1OC (centres unmarked) [Example 7, 2-(3,4-dimethoxyphenyl)-2-phenylthio-5-{N-[(1-acetyl-8-methoxy-1,2,3,4-tetrahydroquinol-5-yl)ethyl]-N-methyl-amino}-pentanenitrile] | 0.36 µM | 3 µM | 2.9 µM | 5.5 µM | 15 | 0.66 | 0.24 µM | – | – | – | – | – | – | -16% | +77% | -7% | +52% | +36% | +15% | 0% | mechanism indicated by the pharmacological effects [6]: intracellular inhibitory mechanisms and, especially, a calcium-calmodulin inhibition mechanism; AAP: Average arterial pressure, maximum variation ([10]; IV 1000 μg/kg): -36%; ACF: Average coronary flow, maximum variation ([10]; IV 1000 μg/kg): +132%; CF: Cardiac frequency, maximum variation ([10]; IV 1000 μg/kg): -11%; I/C: Myocardial O2 intake/consumption ratio, maximum variation ([10]; IV 1000 μg/kg): +107%; PO2 SC: PO2 coronary blood sinus, maximum variation ([10]; IV 1000 μg/kg): +49%; PR: PR space of the ECG, maximum variation ([10]; IV 1000 μg/kg): +37%; dP/dt: Left ventricular pressure derivative, variation ([10]; IV 1000 μg/kg): -3%; negative inotropic effect / cardiotropic effect [10]: absence of a negative inotropic effect; percentage increase in the PR duration [10]: reduction in the percentage increase in the PR duration
COc1cccc(C(C#N)(CCCN(C)CCc2ccc(OC)c3c2CCCN3C(C)=O)C(C)C)c1 (centres unmarked) [Example 13, 2-(3-methoxyphenyl)-2-isopropyl-5-{N-[(1-acetyl-8-methoxy-1,2,3,4-tetrahydroquinol-5-yl)ethyl]-N-methyl-amino}-pentanenitrile] | 0.25 µM | 30 µM | 1 µM | 5.2 µM | 20 | 97 | 34 µM | -10% | +42% | -11% | +40% | +10% | 0% | -23% | – | -15% | +99% | +59% | +32% | -6% | I/C: Myocardial O2 intake/consumption ratio, maximum variation ([10]; IV 100 μg/kg): +45%
COc1ccc(CCN(C)CCCC(C#N)(c2ccc(OC)c(OC)c2)C(C)C)cc1OC (centres unmarked) [Verapamil, verapamil, reference compound] | 0.8 µM | 14 µM | – | 2 µM | – | – | – | -16% | +87% | -9% | +42% | +14% | -5% | -21% | +99% | -8% | – | +71% | +40% | -13% | IC50 ([3]; read-out: RIGHT AURICLE (RA) (CH[…]) IC50): 2 µM; activity on contraction by ionophore calcium A 23187 [7]: inactive; AAP: Average arterial pressure, maximum variation ([10]; IV 30 μg/kg): -5%; ACF: Average coronary flow, maximum variation ([10]; IV 30 μg/kg): +32%; CF: Cardiac frequency, maximum variation ([10]; IV 30 μg/kg): -4%; PO2 SC: PO2 coronary blood sinus, maximum variation ([10]; IV 30 μg/kg): +18%; PR: PR space of the ECG, maximum variation ([10]; IV 30 μg/kg): +6%
